Reference: patent US4328242A, “α-(3,4,5-Trimethoxyhenzoyl)thiopropionyl-glycine” (Ausoria Farmaceutici S.r.l., priority 1980, dated 1982)
pKi: −log10 of the molar value. Read-outs that look alike come from different tables or passages of the source.

Assays:
Acute toxicity in mice = assay type: in vivo; details: mouse, in vivo; for mortality at 240 h: read-out: % Death; for LD50 at 240 h: 10 days observation, probits, read-out: DL50 mg/kg (Confidential Limits)
Mice = experiment: Acute toxicity in mice; assay type: in vivo; details: 20 tested
dogs = experiment: Chronic toxicity in dogs; assay type: in vivo; details: 24 weeks, 125 and 250 mg/kg oral, 200 mg/kg by inhalation
Procedure: The chronic toxicity of TBPG has been investigated in rats and dogs treated for a period of 24 weeks with 125 mg/kg and 250 mg/kg by the oral route and 200 mg/kg by inhalation.

[1] = test system: albino Sprague-Dawley rats; experiment: Toxicity in the fetus, rats; assay type: in vivo; details: daily oral and subcutaneous, 250 and 500 mg/kg, four weeks prior to coupling and twenty days of gestation
Source text: Toxicity in the fetus of TBPG has been studied in albino Sprague-Dawley rats and in New Zealand rabbits. In the case of rats both male and female, the treatment has been initiated four weeks prior to coupling and then has been continued only in the females during the twenty days of gestation.
In the case of female rabbits, the treatment has been carried out during the twenty eight days of gestation.

rabbits = experiment: Secretory activity in rabbits (bronchial secretion); assay type: in vivo
Source text: This activity has been determined using the method described by E. M. Boyd and C. F. Boyd, modified by P. C. Braga, et al described in Bronchial Hypersecretion, 1973. This activity has been determined every hour for a period of four hours by measuring the amount of bronchial secretion derived from the laryngo-tracheal organs and from the tracheo-bronchial organs of rabbits.

[2] = molecular target: T1, glutathione peroxidase (GSHP) (Homo sapiens, UniProt P07203); experiment: Action on the glutathione peroxidase (GSHP); assay type: biochemical; details: system glutathione/NADPH/GSH-reductase/cumene hydroperoxide; read-out: apparent Ki
T1 sequence (P07203 1-203): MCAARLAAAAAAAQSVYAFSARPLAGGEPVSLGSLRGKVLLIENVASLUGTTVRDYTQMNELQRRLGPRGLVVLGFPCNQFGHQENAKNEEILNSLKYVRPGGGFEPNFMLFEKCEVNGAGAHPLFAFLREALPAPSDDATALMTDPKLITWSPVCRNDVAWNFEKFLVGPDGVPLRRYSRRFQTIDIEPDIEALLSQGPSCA
Source text: The experiment has been carried out for the purpose of determining the inhibitory activity if any of TBPG with respect to GSHP, an enzyme well known connected with phlogistic processes.
The results have been obtained using the system glutathione/NADPH/GSH-reductase/cumene hydroperoxide and have shown that TBPG is capable of exerting an inhibitory activity on GSHP with an apparent Ki 5.4.10^-3 molar.

[3] = assay type: in vivo; details: rats, oral route, equimolar doses
[4] = Isothermic (accelerated) stability according to the method of Garret, TLC; assay type: physicochemical
Procedure: The tests of accelerated stability have been carried out with the substance in powder form, that is in glass vials, hermetically closed with a plastic screw cap and also with the substance dissolved in water, that is 500 mg in 10 cc in a transparent glass container of 20 cc capacity closed with a plastic screw cap.
The production of impurities, if any, due to degradation of the substance, has been determined by means of TLC.

Stability to light = assay type: physicochemical; details: powder form, light of a 60 watt lamp, three months
Solubility = assay type: physicochemical
Source text: The structure of the compound is confirmed by analytical and spectroscopic analysis, specifically IR and NMR spectra. The compound is in the form of a white micro-cyrstalline powder, odorless and almost tasteless. It is soluble in a saturated solution of sodium bicarbonate and in other basic solutions. The substance is insoluble in water, soluble in warm ethanol.

[5] = with respect to the control animals

## COc1cc(C(=O)SC(C)C(=O)NCC(=O)O)cc(OC)c1OC (stereo not drawn) [TBPG, α-(3,4,5-trimethoxybenzoyl)thiopropionylglycine]
Acute toxicity in mice; ip, 1500 mg/kg
  mortality at 240 h: 0%
Acute toxicity in mice; ip, 2000 mg/kg
  mortality at 240 h: 40%
Acute toxicity in mice; ip, 2500 mg/kg
  mortality at 240 h: 50%
Acute toxicity in mice; ip, 3000 mg/kg
  mortality at 240 h: 65%
Acute toxicity in mice; ip, 3500 mg/kg
  mortality at 240 h: 90%
Acute toxicity in mice; ip, 95% limits (2192-2963)
  LD50 at 240 h: 2530 mg/kg
Acute toxicity in mice; po, orally, 3000 mg/kg
  mortality at 240 h: 5%
Acute toxicity in mice; po, orally, 4000 mg/kg
  mortality at 240 h: 30%
Acute toxicity in mice; po, orally, 5000 mg/kg
  mortality at 240 h: 50%
Acute toxicity in mice; po, orally, 6000 mg/kg
  mortality at 240 h: 75%
Acute toxicity in mice; po, orally, 7000 mg/kg
  mortality at 240 h: 90%
Acute toxicity in mice; po, orally, 95% limits (4539-5254)
  LD50 at 240 h: 4860 mg/kg
Mice; i.p., 1500 mg/kg
  No. of Animals Dead: 0
Mice; i.p., 2000 mg/kg
  No. of Animals Dead: 8
Mice; i.p., 2500 mg/kg
  No. of Animals Dead: 10
Mice; i.p., 3000 mg/kg
  No. of Animals Dead: 13
Mice; i.p., 3500 mg/kg
  No. of Animals Dead: 18
Mice; orally, 3000 mg/kg
  No. of Animals Dead: 1
Mice; orally, 4000 mg/kg
  No. of Animals Dead: 6
Mice; orally, 5000 mg/kg
  No. of Animals Dead: 10
Mice; orally, 6000 mg/kg
  No. of Animals Dead: 15
Mice; orally, 7000 mg/kg
  No. of Animals Dead: 18
dogs
  chronic toxicity (symptoms, behavior, deaths, body growth, hematology, hepatic and renal functions, organs): totally innocuous
[1]
  toxicity in the fetus (deformation, number and weight of living offspring): has not induced any deformation in the fetus and has not affected the number and the weight of the living offspring
rabbits; oral, rectal or inhalation, 50 and 200 mg/kg, every hour for four hours
  laryngo-bronchial secretion: increase in a significant manner and proportionally to the dosage
rabbits; [5]
  laryngo-tracheal secretion: equal to the activity of α-mercaptopropionylglycine
  tracheo-bronchial secretion: more substantial activity
[2]
  pKi: 2.27
[3]
  concentration in the kidney: high concentrations in the kidney
  distribution in the organs: sufficiently homogenous
[3]; statistically significant
  content in the lungs with respect to α-mercaptopropionylglycine: substantially higher content in the lungs
[4]; Powder, 60°, 320 hours
  Chromatographic Impurities: Absent
[4]; Powder, 70°, 120 hours
  Chromatographic Impurities: Absent
[4]; Powder, 70°, 240 hours
  Chromatographic Impurities: Absent
[4]; Powder, 80°, 45 hours
  Chromatographic Impurities: Absent
[4]; Powder, 80°, 180 hours
  Chromatographic Impurities: Absent
[4]; Solution (500 mg in 10 cc water), 60°, 0 hours
  Chromatographic Impurities: Absent
[4]; Solution (500 mg in 10 cc water), 60°, 320 hours
  Chromatographic Impurities: Absent
[4]; Solution (500 mg in 10 cc water), 60°, 640 hours, read-out: Chromatographic Impurities
  degraded at 640 h: 0.5%
[4]; Solution (500 mg in 10 cc water), 60°, 960 hours, read-out: Chromatographic Impurities
  degraded at 960 h: 0.7%
[4]; Solution (500 mg in 10 cc water), 60°, 1280 hours, read-out: Chromatographic Impurities
  degraded at 1280 h: 1.2%
[4]; Solution (500 mg in 10 cc water), 60°, 1600 hours, read-out: Chromatographic Impurities
  degraded at 1600 h: 1.3%
[4]; Solution (500 mg in 10 cc water), 70°, 180 hours
  Chromatographic Impurities: Absent
[4]; Solution (500 mg in 10 cc water), 70°, 240 hours, read-out: Chromatographic Impurities
  degraded at 240 h: 1.1%
[4]; Solution (500 mg in 10 cc water), 70°, 480 hours, read-out: Chromatographic Impurities
  degraded at 480 h: 1.2%
[4]; Solution (500 mg in 10 cc water), 80°, 45 hours
  Chromatographic Impurities: Absent
[4]; Solution (500 mg in 10 cc water), 80°, 90 hours, read-out: Chromatographic Impurities
  degraded at 90 h: 1.2%
[4]; Solution (500 mg in 10 cc water), 80°, 120 hours, read-out: Chromatographic Impurities
  degraded at 120 h: 1.3%
Stability to light
  stability to light: undergoes no change
Solubility; saturated solution of sodium bicarbonate and other basic solutions
  solubility: soluble
Solubility; warm ethanol
  solubility: soluble
Solubility; water
  solubility: insoluble
